Assay results from patent US20070275902A1, “Treatment of Phosphatidylinositol Phospholipid Disorders” (TRANSMOLECULAR, INC., priority 2003, published 2007).
“Also recorded” adds a separate entry of the source.

Test: Binding to phosphatidylinositol beads (PIP beads), biotinylated peptide detected with streptavidin-HRP/TMB
Settings: biotinylated peptide at final concentration of 100 μM, two hours at room temperature, absorbance 595 nm
Protocol: Sedimented suspensions of PIP beads™ were obtained from Molecular Probes. The beads are supplied as 10 nanomoles of bound phosphoinositide per milliliter of sedimented suspension. PIP beads were pelleted by centrifugation at low speed in a Beckman Coulter Microfuge. Pelleted beads were washed in wash-binding buffer (0.5% NP-40 in phosphate-buffered saline, 1 ml, 3×5 minutes) and centrifuged at low speed following each wash. After washing, pelleted beads were resuspended in an equal volume of Wash/Binding buffer. 100 μl of bead suspension was used for each binding reaction. Biotinylated chlorotoxin was diluted in wash-binding buffer, added to each phosphatidylinositol bead suspension at a final concentration of 100 μM and allowed to incubate for two hours at room temperature. Following incubation with chlorotoxin, the bead suspensions were washed in Wash/Binding buffer (1 ml, 3×5 minutes) and centrifuged at low speed after each wash. Streptavidin horseradish peroxidase (Vector Labs) was diluted 1:1000 in wash-binding buffer, 100 μl of this solution was added to each of the phosphatidylinositol bead suspensions, and allowed to incubate […] at room temperature. Following incubation with streptavidin, bead suspensions were washed thoroughly in Wash/Binding buffer (1 ml, 5×10 minutes) and centrifuged at low speed after each wash. Immediately prior to use, a 1:1 mixture of TMB substrate (Pierce) was prepared, 100 μl of this solution was added to each reaction, and allowed to incubate at room temperature for up to thirty minutes. After incubation with substrate, bead suspensions were pelleted by centrifugation, supernatants were transferred to a 96-well plate and absorbance (λ=595 nm) was obtained using BioRad microplate reader and microplate manager software.
In order to confirm the identify of the minimal binding sequences within the alpha and beta peptides, each of the two peptides was incubated with different species of phosphatidylinositols as set forth in Example 1.

Row | Substance | binding to different species of phosphatidylinositols
1 | KGRGKSY [beta-domain peptide] | binds to multiple species of phosphatidylinositols; also recorded: bound to all of the same species of phosphatidylinositols as did chlorotoxin
2 | TDHQMAR [alpha-domain peptide] | no binding activity
3 | chlorotoxin | binding of chlorotoxin to different phosphatidylinositols
